Laboratory results taken from article PMC8703412 (Pharmaceuticals, 2021).
In brackets after ≈: the same amount, converted by molar mass. Where two headings read alike, the source gives them in different places.

Columns and labels:
[1] = system: Mycobacterium tuberculosis strain 331/88 (i.e., H37Rv); assay: MIC micromethod in Šula's medium, drug-susceptible Mtb.; format: cell-based; settings: Mycobacterium tuberculosis, H37RV
[2] = system: Mycobacterium avium 330/88; assay: MIC micromethod in Šula's medium, M. avium; format: cell-based; settings: Mycobacterium avium
[3] = system: Mycobacterium kansasii 6509/96 (clinical isolate); assay: MIC micromethod in Šula's medium, M. kansasii; format: cell-based; settings: Mycobacterium kansasii
[4] = Cytotoxicity, CellTiter 96 (MTS) assay; settings: human, Cytotoxicity for HepG2 cells, IC50, 24 h incubation, 1–1000 µM
[5] = 336 h, 14 d incubation, esters, Table 1, read-out: MIC Mtb. 331/88 14 d
[6] = 504 h, 21 d incubation, esters, Table 1, read-out: MIC Mtb. 331/88 21 d
[7] = 330/88, 336 h, 14 d incubation, Table 1, read-out: MIC M. avium 330/88 14 d
[8] = 330/88, 504 h, 21 d incubation, Table 1, read-out: MIC M. avium 330/88 21 d
[9] = 168 h, 7 d incubation, Table 1, read-out: MIC M. kansasii 6509/96 7 d
[10] = 336 h, 14 d incubation, Table 1, read-out: MIC M. kansasii 6509/96 14 d
[11] = 504 h, 21 d incubation, Table 1, read-out: MIC M. kansasii 6509/96 21 d
[12] = 336 h, 14 d incubation, precursors, Table 2, read-out: MIC Mtb. 331/88 14 d
[13] = 504 h, 21 d incubation, precursors, Table 2, read-out: MIC Mtb. 331/88 21 d
[14] = 330/88, 336 h, 14 d incubation, precursors, Table 2, read-out: MIC M. avium 330/88 14 d
[15] = 330/88, 504 h, 21 d incubation, precursors, Table 2, read-out: MIC M. avium 330/88 21 d
[16] = 336 h, 14 d incubation, precursors, Table 2, read-out: MIC M. kansasii 6509/96 14 d
[17] = 504 h, 21 d incubation, precursors, Table 2, read-out: MIC M. kansasii 6509/96 21 d

Row | Structure (SMILES) | MIC [1, 5] | MIC [1, 6] | MIC [2, 7] | MIC [2, 8] | MIC [3, 9] | MIC [3, 10] | MIC [3, 11] | melting point | IC50 at 24 h [4] | MIC ([3]; 504 h, text summary over 7, 14 and 21 d, read-out: MIC for M. kansasii 6509/96) | MIC [1, 12] | MIC [1, 13] | MIC [2, 14] | MIC [2, 15] | MIC ([3]; 168 h, 7 d incubation, precursors, Table 2, read-out: MIC M. kansasii 6509/96 7 d) | MIC [3, 16] | MIC [3, 17] | MIC ([3]; 168 h, read-out: MIC M. kansasii 6509/96 7 d)
1 | C/C(=N\NC(=O)c1ccncc1)C(=O)Oc1ccc(C)cc1 [3c, p-Tolyl (E)-2-(2-isonicotinoylhydrazineylidene)propanoate] | ≤ 0.25 µM | 0.5 µM (≈ 0.149 µg/mL) | > 250 µM | > 250 µM | 8 µM (≈ 2.38 µg/mL) | 8 µM (≈ 2.38 µg/mL) | 8 µM (≈ 2.38 µg/mL) | 168 to 170 °C | > 1000 µM | – | – | – | – | – | – | – | – | –
2 | COC(=O)/C(C)=N/NC(=O)c1ccncc1 [3a, Methyl (E)-2-(2-isonicotinoylhydrazineylidene)propanoate] | 0.25 µM (≈ 0.0553 µg/mL) | 0.25 µM (≈ 0.0553 µg/mL) | 500 µM (≈ 111 µg/mL) | 1000 µM (≈ 221 µg/mL) | 2 µM (≈ 0.442 µg/mL) | 4 µM (≈ 0.885 µg/mL) | 8 µM (≈ 1.77 µg/mL) | 122 to 124.8 °C | > 1000 µM | – | – | – | – | – | – | – | – | –
3 | C/C(=N\NC(=O)c1ccncc1)C(=O)Oc1ccc(Br)cc1 [3h, 4-Bromophenyl (E)-2-(2-isonicotinoylhydrazineylidene)propanoate] | ≤ 0.125 µM | 0.25 µM (≈ 0.0905 µg/mL) | 250 µM (≈ 90.5 µg/mL) | 500 µM (≈ 181 µg/mL) | 8 µM (≈ 2.9 µg/mL) | 8 µM (≈ 2.9 µg/mL) | 16 µM (≈ 5.79 µg/mL) | 190 to 192 °C | > 1000 µM | 8 to 16 µM (≈ 2.9 to 5.79 µg/mL) | – | – | – | – | – | – | – | –
4 | CC(=O)Nc1ccc(O)cc1 [Paracetamol, reference compound] | – | – | – | – | – | – | – | – | – | – | > 1000 µM | > 1000 µM | > 1000 µM | > 1000 µM | – | – | – | –
5 | C/C(=N\NC(=O)c1ccncc1)C(=O)Sc1ccccc1 [3s, S-Phenyl (E)-2-(2-isonicotinoylhydrazineylidene)propanethioate] | 0.25 µM (≈ 0.0748 µg/mL) | 0.25 µM (≈ 0.0748 µg/mL) | 250 µM (≈ 74.8 µg/mL) | 250 µM (≈ 74.8 µg/mL) | 1 µM (≈ 0.299 µg/mL) | 2 µM (≈ 0.599 µg/mL) | 4 µM (≈ 1.2 µg/mL) | 186 to 187 °C | 182 µM | – | – | – | – | – | – | – | – | –
6 | Oc1cccc2ccccc12 [1-naphthol, reference compound] | – | – | – | – | – | – | – | – | – | – | 250 µM (≈ 36 µg/mL) | 500 µM (≈ 72.1 µg/mL) | 500 µM (≈ 72.1 µg/mL) | 500 µM (≈ 72.1 µg/mL) | 125 µM (≈ 18 µg/mL) | 250 µM (≈ 36 µg/mL) | 500 µM (≈ 72.1 µg/mL) | –
7 | COc1ccc(OC(=O)/C(C)=N/NC(=O)c2ccncc2)cc1 [3d, 4-Methoxyphenyl (E)-2-(2-isonicotinoylhydrazineylidene)propanoate] | 0.25 µM (≈ 0.0783 µg/mL) | 0.25 µM (≈ 0.0783 µg/mL) | 500 µM (≈ 157 µg/mL) | 1000 µM (≈ 313 µg/mL) | 4 µM (≈ 1.25 µg/mL) | 8 µM (≈ 2.51 µg/mL) | 8 µM (≈ 2.51 µg/mL) | 169 to 172 °C | > 1000 µM | – | – | – | – | – | – | – | – | –
8 | C/C(=N\NC(=O)c1ccncc1)C(=O)OCCn1c([N+](=O)[O-])cnc1C [3q, 2-(2-Methyl-5-nitro-1H-imidazol-1-yl)ethyl (E)-2-(2 isonicotinoylhydrazineylidene)propanoate] | 0.25 µM (≈ 0.0901 µg/mL) | 0.5 µM (≈ 0.18 µg/mL) | 500 µM (≈ 180 µg/mL) | 1000 µM (≈ 360 µg/mL) | 2 µM (≈ 0.721 µg/mL) | 4 µM (≈ 1.44 µg/mL) | 4 µM (≈ 1.44 µg/mL) | 123 to 125.7 °C | > 1000 µM | – | – | – | – | – | – | – | – | –
9 | C/C(=N\NC(=O)c1ccncc1)C(=O)Oc1ccccc1 [3b, Phenyl (E)-2-(2-isonicotinoylhydrazineylidene)propanoate] | 0.125 µM (≈ 0.0354 µg/mL) | 0.25 µM (≈ 0.0708 µg/mL) | > 250 µM | > 250 µM | 8 µM (≈ 2.27 µg/mL) | 8 µM (≈ 2.27 µg/mL) | 8 µM (≈ 2.27 µg/mL) | 186 to 189 °C | > 1000 µM | – | – | – | – | – | – | – | – | –
10 | CCSC(=O)/C(C)=N/NC(=O)c1ccncc1 [3r, S-Ethyl (E)-2-(2-isonicotinoylhydrazineylidene)propanethioate] | 0.25 µM (≈ 0.0628 µg/mL) | 0.25 µM (≈ 0.0628 µg/mL) | 250 µM (≈ 62.8 µg/mL) | 500 µM (≈ 126 µg/mL) | 1 µM (≈ 0.251 µg/mL) | 2 µM (≈ 0.503 µg/mL) | 4 µM (≈ 1.01 µg/mL) | 158 to 160 °C | > 1000 µM | – | – | – | – | – | – | – | – | –
11 | Oc1ccc2ccccc2c1 [2-naphthol, reference compound] | – | – | – | – | – | – | – | – | – | – | 500 µM (≈ 72.1 µg/mL) | 500 µM (≈ 72.1 µg/mL) | 1000 µM (≈ 144 µg/mL) | 1000 µM (≈ 144 µg/mL) | – | 500 µM (≈ 72.1 µg/mL) | 500 µM (≈ 72.1 µg/mL) | 250 µM (≈ 36 µg/mL)
